{"source": "patent US8110544B2", "about": "“RasGAP derived peptide for selectively killing cancer cells” (Universite de Lausanne, priority 2003, dated 2012)", "molecules": {"B1": {"name": "fragment N2: human RasGAP amino acids 158 to 455, 36 kDa, expressed from plasmid N2.dn3 (protein, UniProt P20936 158-455, looked up, fragment)", "chain": "SLDGPEYEEEEVAIPLTAPPTNQWYHGKLDRTIAEERLRQAGKSGSYLIRESDRRPGSFVLSFLSQMNVVNHFRIIAMCGDYYIGGRRFSSLSDLIGYYSHVSCLLKGEKLLYPVAPPEPVEDRRRVRAILPYTKVPDTDEISFLKGDMFIVHNELEDGWMWVTNLRTDEQGLIVEDLVEEVGREEDPHEGKIWFHGKISKQEAYNLLMTVGQVCSFLVRPSDNTPGDYSLYFRTNENIQRFKICPTPNNQFMMGGRYYNSIGDIIDHYRKEQIVEGYYLKEPVPMQDQEQVLNDTVD"}, "B2": {"name": "SH2 domain: human RasGAP amino acids 158-277, expressed from plasmid SH2.dn3 (protein, UniProt P20936 158-277, looked up, fragment)", "chain": "SLDGPEYEEEEVAIPLTAPPTNQWYHGKLDRTIAEERLRQAGKSGSYLIRESDRRPGSFVLSFLSQMNVVNHFRIIAMCGDYYIGGRRFSSLSDLIGYYSHVSCLLKGEKLLYPVAPPEP", "modifications": "SH2 domain", "notes": "human RasGAP amino acids 158-277, expressed from plasmid SH2.dn3"}}, "key": {"NFκB activity": {"tested_on": "NFκB activity", "test": "NFκB firefly luciferase reporter assay in U2OS cells", "type": "cell-based, human", "details": "20 μM peptide or cisplatin, 20 hours", "procedure": "U2OS Cells (1×10^5) were plated in 6 well plates and transfected with 1 μg of a firefly luciferase reporter plasmid for NFκB activity and 0.1 μg of a plasmid encoding the Renilla luciferase. The cells were treated one day later with the indicated concentrations of cisplatin in the absence or in the presence of 20 μM HV-TAT48-57 or TAT-RaSGAP317-326 peptides during 20 hours. The data represent the firefly luciferase activity normalized to the Renilla luciferase activity and expressed as fold increase of the basal NFκB activity obtained in control untreated cells. The results correspond to the mean±standard deviation of three independent determinations. Asterisks denote significant differences between the indicated conditions (**, p<0.01; ***, p<0.001).\nU2OS cells were transfected with 1 μg of a firefly luciferase reporter plasmid for NFκB activity, 0.1 μg of a plasmid encoding the Renilla luciferase, 0.5 μg of a GFP-expressing plasmid (to label the transfected cells), 1 μg of a plasmid encoding IκBαΔN2 that inhibit the NFκB pathway or with 1 μg an empty pcDNA3 vector. The cells were incubated one day later with increasing concentrations of cisplatin in the presence of 20 μM HIV-TAT48-57 or 20 μM TAT-RasGAP317-326 for an additional 20 hour period. The cells were then lysed and the NFκB activity assessed as described in panel A, except that the results were expressed as fold increase of the NFκB activity detected in cells incubated with the control HV-TAT48-57 peptide.\nLuciferase assay was performed using the Dual-Luciferase® Reporter Assay from Promega (cat. no E1910). […] The firefly luciferase activity was recorded by mixing 20 μl of the lysate with 25 μl of the LARII Reagent and the Renilla luciferase activity was recorded by adding to the previous mix 25 μl of the Stop & Glo Reagent. For each measurement, light emission was quantified during 12 seconds using a Lumat LB 9501 luminometer (Berthold Technologies, Zurich, Switzerland)."}, "HeLa cells [1]": {"tested_on": "HeLa cells", "test": "Apoptosis (pycnotic nuclei) of HeLa cells transfected with RasGAP constructs and treated with genotoxins", "type": "cell-based, human", "details": "for potentiation of cisplatin-induced apoptosis in HeLa cells: transfected construct, 0.15 μM cisplatin, apoptosis scored 20 hours later", "procedure": "HeLa cells (2×10^6) were plated in 10-cm-diameter Petri dishes, transfected with 1 μg of GFP-expressing plasmid (to label the transfected cells) together with 2 μg of an empty pcDNA3 plasmid or 2 μg of a pcDNA3 vector encoding fragment N2. One day following the transfection, the cells were incubated for 24 hours with the indicated concentrations of cisplatin, adriamycin or mitoxantrone. The number of GFP-positive cells displaying pycnotic nucleus was then scored.\nHeLa cells were transfected as described in FIG. 1 with plasmids endoding the constructs described in FIG. 2A. HeLa cells were then treated or not with 0.15 μM cisplatin and the extent of apoptosis was determined 20 hours later. The results correspond to the mean±standard deviation of three independent determinations. Asterisks denote a significant difference between the cells treated with 0.15 μM cisplatin and the cells without treatment (**, p<0.01; ***, p<0.001).\nHeLa and MCF-7 cells were maintained in RPMI 1640 (Sigma; cat. no 8758) containing 10% newborn calf serum (Sigma; cat. no N4637) at 37° C. and 5% CO2. U2OS cells were maintained in DMEM (Sigma; cat. no 5796) containing 15% foetal calf serum (Sigma; cat. no F7524) at 37° C. and 5% CO2. H-Meso-1 cells were maintained in RPMN 1640 containing 10% foetal calf serum at 37° C. and 5% CO2. […] After 8 hours at 37° C. and 5% CO2, the medium was replaced with fresh culture medium and the cells were further incubated for 16-24 hours before being analyzed.\nApoptosis was determined by scoring the number of cells displaying pycnotic nuclei. Nuclei of live cells were labeled with Hoechst 33342 (10 μg/ml final concentration) for about 5 minutes and the cells were then analyzed (at least 400 cells per condition) using an inverted Leica DMIRB microscope equipped with fluorescence and transmitted light optics. […] In this case, the extent of apoptosis was assessed in the transfected cells only. […]"}, "JNK": {"tested_on": "JNK", "test": "Western blot of phospho-JNK in U2OS cells", "type": "cell-based, human", "details": "20 μM peptide", "procedure": "(§1) U2OS cells (2×10^5) were plated in 6 well plates and treated for the indicated periods of time with the indicated combinations of the HW-TAT48-57 or TAT-RasGAP317-326 peptides (at a 20 μM concentration) and cisplatin (at a 30 μM concentration). Positive controls for JNK and p38 activation were obtained following stimulation of the cells with 1 μg/ml anisomycine during 3 hours and with 0.5 M sorbitol for 30 min, respectively. The quantitations depicted under the Western blots were performed on the 12-hour bands and normalized against the positive controls. The results correspond to the mean±standard deviation of three independent experiments. […]"}, "p38 MAPKs": {"tested_on": "p38 MAPKs", "test": "Western blot of phospho-p38 in U2OS cells", "type": "cell-based, human", "details": "20 μM peptide", "procedure": "as §1"}, "HeLa cells [2]": {"tested_on": "HeLa cells", "details": "Yang and Widmann 2001; cited from earlier work"}}, "data": [{"molecule": "N.N.[Cl][Pt][Cl]", "note": "[cisplatin, reference compound]", "values": [{"measurement": "NFkB activation in U2OS cells (single agent)", "setting": "NFκB activity", "result": "activated"}]}, {"molecule": "WMWVTNLRTD (listed as Homo sapiens) [317-326, 10 amino acid long peptide expressed from a transfected construct]", "values": [{"measurement": "potentiation of cisplatin-induced apoptosis in HeLa cells", "setting": "HeLa cells [1]", "result": "potentiated the ability of cisplatin to kill HeLa cells"}]}, {"molecule": "GRKKRRQRRR [HIV-TAT48-57, reference compound]", "values": [{"measurement": "activation of JNK pathway by peptide alone", "setting": "JNK", "result": "neither the control HIV-TAT48-57 peptide nor the TAT-RasGAP317-326 peptide activated these MAPK pathways"}, {"measurement": "activation of p38 MAPK pathway by peptide alone", "setting": "p38 MAPKs", "result": "neither the control HIV-TAT48-57 peptide nor the TAT-RasGAP317-326 peptide activated these MAPK pathways"}]}, {"molecule": "B1", "values": [{"measurement": "sensitivity of HeLa cells towards the various drugs relative to control cells", "setting": "HeLa cells [1]; HeLa cells expressing fragment N2 vs empty pcDNA3, cisplatin, adriamycin, mitoxantrone, 24 hours", "result": "at least 10 times"}, {"measurement": "ability of cisplatin to kill the HeLa tumor cell line", "setting": "HeLa cells [2]", "result": "enhances the ability of cisplatin to kill the HeLa tumor cell line"}]}, {"molecule": "B2", "values": [{"measurement": "potentiation of cisplatin-induced apoptosis in HeLa cells", "setting": "HeLa cells [1]", "result": "did not enhance the ability of cisplatin to kill HeLa cells"}]}]}
